Test results as given in patent US20080139613A1, “Chemical Compound” (AstraZeneca AB, priority 2006, published 2008).

How the values were obtained:
CCR5 = target: T1, CCR5 (Homo sapiens, UniProt P51681); test: Displacement of radio-labelled CCR5 antagonist from Allo-T cell membranes; type: binding; settings: membranes of human allo-reactive T cells; 2 nM [3H] CCR5 antagonist; 2 hours at room temperature
T1 construct: After 21 to 34 days culture, the membranes were prepared from the cells; endogenous in cells; host or cells: Allo-T cells (allo-reactive T cell line from human PBMCs), membrane preparation
Method: The ability of the compound of the present invention to inhibit the binding of MIP-1β (CCL-4) was measured:
An allo-reactive T cell line was generated by exposure of human peripheral blood mononuclear cells (PBMCs) to L-DR4/B7 fibroblasts (immobilised with glutaraldehyde fixation and irradiation) and subsequent expansion with anti-CD3 and IL-2 for 14 days. The resultant Allo-T cells were frozen. When required, the cells were grown and re-challenged with irradiated HLA-DR4+ve PBMCs and expanded with anti-CD3 and IL-2. After 21 to 34 days culture, the membranes were prepared from the cells. These membranes were incubated in 96-well plates with 2 nM of the radio-labelled CCR5 antagonist [^3H]1-{(3R)-3-(3,5-difluorophenyl)-3-[4-(methylsulfonyl)phenyl]propyl}-4-(2-{[4-(methylsulfonyl)phenyl]sulfonyl}ethyl)piperidine and various concentrations of the compound of the invention for 2 hours at room temperature. The plates were then harvested onto GF/B filter plates (which had been pre-soaked soaked in 0.3% PEI containing 0.2% BSA for 10 min at 4° C.) using a Packard Unifilter harvester using 10 wash steps. The amount of [^3H]1-{(3R)-3-(3,5-difluorophenyl)-3-[4-(methylsulfonyl)phenyl]propyl}-4-(2-{[4-(methylsulfonyl)phenyl]sulfonyl}ethyl)piperidine retained on the filter plates was determined by scintillation counting. […]

[1] = Rat pharmacokinetics after intravenous and oral dosing; type: in vivo; settings: male Han Wistar rat; for clearance / half-life / Vd: Alderley Park Han Wistar, whole blood, intravenous 2 mg/kg; for clearance: blood clearance; for half-life: read-out: T½ (converted); for Vd: volume of distribution, read-out: Vdss; for F: bioavailability, oral 2 mg/kg vs intravenous 2 mg/kg
Method: The rat pharmacokinetic (PK) parameters blood clearance (CL), volume of distribution (Vdss) and half life (t1/2) are calculated by determining the concentration (exposure) of test compound in whole blood samples taken from rats at various, defined time points subsequent to the intra-venous dosing (administration) of formulated test compound. The rat PK parameter bioavailability (F) is calculated by determining the concentration (exposure) of test compound in whole blood samples taken from rats at various, defined time-points subsequent to the oral dosing (administration) of formulated test compound and then by comparison of the ratio of the dose normalized total oral exposure (AUCpo) with the dose normalized total intra-venous exposure (AUCiv). Fraction absorbed (Fabs) is a secondary PK parameter that is often calculated from a knowledge of the clearance (CL) and bioavailability (F) of a test compound. The equation for determination of Fabs is as follows: […]
where Qh is the species liver blood flow (ml/min/kg).
For intravenous dosing, test compounds are dissolved in dimethyl acetamide (DMA) and then diluted with water such that the final test compound concentration is 1 mg/ml and the composition of the formulation is 40% DMA: 60% water. Male rats (n=2, Alderley Park Han Wistar strain) are then administered, via the tail vein, the test compound formulation at a dose volume of 2 ml/kg bodyweight such that each rat receives a total test compound dose of 2 mg/kg bodyweight. Blood sampling post IV dosing is via needle stick puncture of the tail vein and is serial in design: two rats have blood samples taken at 5, 20, 40, 90, 180, 360, 720 and 1440 (cardiac puncture) minutes after dosing.
For oral dosing, test compounds are dissolved in dimethyl sulphoxide (DMSO and then diluted with hydroxymethyl cellulose (HPMC) 0.5% w/v-Tween 80 (0.1% v/v) such that the final test compound concentration is 1 mg/ml and the composition of the formulation is 5% DMSO:95% HPMC/Tween. Male rats (n=2, Alderley Park Han Wistar strain) are then administered, via oral gavage, the test compound formulation at a dose volume of 2 ml/kg bodyweight such that each rat receives a total test compound dose of 2 mg/kg bodyweight. Blood sampling post oral dosing is via needle stick puncture of the tail vein and is serial in design: two rats have blood samples taken at 15, 30, 60, 120, 180, 360, 720 and 1440 (cardiac puncture) minutes after dosing. All blood samples are collected into lithium heparin tubes to prevent clotting. Aliqouts of blood are then diluted 1:1 with water and then frozen at −20° C. prior to being assayed to determine test compound concentration.
Calibration standard samples are prepared by addition of known amounts of test compound to blank diluted (1:1) blood samples. Calibration standards and unknown samples are then diluted and mixed with 3 parts ice-cold acetonitrile (containing suitable internal standard) to precipitate proteinaceous material. Following centrifugation, sample and calibration standard supernatants are analysed for test compound concentration by HPLC with MS/MS (triple quad mass spectrometry) detection. Quantification of test compound concentrations in the blood samples taken from the rats is achieved by reference to a standard curve constructed from the calibration standard samples.
Blood concentration—time point data and other information such as IV and PO dose is then entered into and analysed by a commercially available non-linear regression software program (WinNonLin version 4.1, Pharsight Corporation) to determine the rat PK parameters of interest (as described above).

T1 sequence (P51681 whole entry): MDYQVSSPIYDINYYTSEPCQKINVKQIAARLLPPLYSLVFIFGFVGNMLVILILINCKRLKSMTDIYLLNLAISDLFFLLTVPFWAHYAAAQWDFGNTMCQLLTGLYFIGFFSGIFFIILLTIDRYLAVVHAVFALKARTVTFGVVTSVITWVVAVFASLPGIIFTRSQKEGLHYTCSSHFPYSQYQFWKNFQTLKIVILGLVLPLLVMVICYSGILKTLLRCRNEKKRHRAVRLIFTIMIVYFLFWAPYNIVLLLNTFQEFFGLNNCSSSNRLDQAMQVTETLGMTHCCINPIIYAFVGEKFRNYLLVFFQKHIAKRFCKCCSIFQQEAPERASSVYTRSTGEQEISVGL

SMILES: CCc1nnc(C(C)C)n1C1CCN([C@H](C)C[C@@H](c2cc(F)cc(F)c2)C2CCN(S(C)(=O)=O)CC2)CC1 (single isomer, unassigned)
- IC50 (CCR5): 6.5 nM
- clearance [1]: 18 mL/min/kg
- half-life [1]: 240 min
- Vd [1]: 4.1 L/kg
- F [1]: 28%

SMILES: Cc1nnc(C(C)C)n1C1CCN(C(C)C[C@@H](c2cc(F)cc(F)c2)C2CCN(S(C)(=O)=O)CC2)CC1 (single isomer, unassigned) [Comparator Compound A]
- IC50 (CCR5): 32 nM
- clearance [1]: 37 mL/min/kg
- half-life [1]: 162 min
- Vd [1]: 4.9 L/kg
- F [1]: 1%
